Laboratory results from patent publication US20160194358A1, “LINEAR PEPTIDE ANTIBIOTCS” (priority 2013, published 2016).
Values after ≈ are worked out from the molar mass of the structure shown. Where two headings read alike, the source gives them in different places. Where a SMILES comes first, the peptide text is derived from it. [ ]: non-standard residue; d: D form. The star is where a group is joined. boroAla((+)-pinanediol) = C[C@H](N*)B1O[C@@H]2C[C@@H]3C[C@@H](C3(C)C)[C@]2(C)O1; Benzenesulfonyl(4-Ph) = O=S(=O)(c1ccc(-c2ccccc2)cc1)*; Benzoyl(4-(4-Cl-Ph)) = O=C(c1ccc(-c2ccc(Cl)cc2)cc1)*; Ethanesulfonyl(2-NHDecyl) = CCCCCCCCCCNCCS(=O)(=O)*; Propanoyl(3-decylamino) = CCCCCCCCCCNCCC(=O)*; X18 = CCCCc1ccc(-c2ccc(S(=O)(=O)*)cn2)cc1; X21 = O=S(=O)(c1ccc(-c2ccc(Cl)cc2)nc1)*; AlaCOCOOMe = COC(=O)C(=O)[C@H](C)N*; X36 = CC(C)C#CC#Cc1ccc(C(=O)*)cc1; X20 = CC(N*)C(=O)C(F)(F)C(=O)O; X28 = C[C@H](N*)C(=O)c1ncccn1; X22 = C[C@H](N*)C(=O)C(=O)O; Decanoyl = CCCCCCCCCC(=O)*; boroAla = C[C@H](N*)B(O)O; Dab = NCC[C@H](N)C(=O)O; Dap = NC[C@H](N)C(=O)O

Legend:
[1] = test system: methicillin resistant Staphylococcus aureus (MRSA) strain USA300 (NRS384)
Protocol: (§1) In vitro antimicrobial activity of each compound was determined by measuring minimal inhibitor concentrations (MICs) using the broth micro-dilution technique as approved by the Clinical and Laboratory Standards Institute (CLSI). Antibacterial activity was measure against two strains of bacteria: 1) methicillin resistant Staphylococcus aureus (MRSA) strain USA300 (NRS384) and 2) Escherichia coli strain MC4100 IMP-4213, which harbors an LptD mutation. Bacterial inocula were prepared by scraping cells into 1 mL of testing media (cation adjusted Mueller Hinton Broth supplemented with 0.002% v/v Tween-80) and diluting to a final OD600nm of 0.01.
(§2) Test compounds were prepared in DMSO at a concentration of 10 mg/ml. These compound stocks were diluted into testing media at a concentration of 64 μg/ml and 9 serial 1:2 dilutions were made in the same media, in 96-well U bottom microtiter dishes. Bacterial inocula were added to the two fold serial dilutions of test compounds to a final density of OD OD600nm of 0.0005 and incubated stationarily at 35° C. for 22 hours, after which the plates were examined visually.

[2] = test system: Escherichia coli strain MC4100 IMP-4213, which harbors an LptD mutation; conditions: E. coli MC4100 IMP-4213; 35° C., 22 hours
Protocol: as §1, §2

[3] = MRSA USA300 (NRS384), 35° C., 22 hours

| SMILES | MIC (μg/mL) S. aureus ([1]; USA300, 22 h) [µg/mL] | MIC (μg/mL) E. coli [2] [µg/mL] | MIC (μg/mL) S. aureus [1, 3] [µg/mL] |
| --- | --- | --- | --- |
| CCCCCCCCCCNCCC(=O)N[C@@H](CCCCN)C(=O)N[C@H](C(=O)N[C@@H](C)C(=O)N[C@@H](CCCCN)C(=O)N[C@@H](C)C(=O)C(=O)OC)[C@@H](C)O [Compound 248] ({Propanoyl(3-decylamino)}-KTAK-AlaCOCOOMe) | 1 (≈ 1.3 µM) | >64 |  |
| CCCCCCCCCCNCCC(=O)N[C@@H](CCCCN)C(=O)N[C@H](C(=O)N[C@@H](C)C(=O)N[C@@H](Cc1cnc[nH]1)C(=O)N[C@@H](C)B1O[C@@H]2C[C@@H]3C[C@@H](C3(C)C)[C@]2(C)O1)[C@@H](C)O [Compound 225] ({Propanoyl(3-decylamino)}-KTAH-{boroAla((+)-pinanediol)}) |  | 16 (≈ 18.3 µM) | 2 (≈ 2.29 µM) |
| C[C@H](NC(=O)[C@H](CCCCN)NC(=O)[C@H](C)NC(=O)[C@@H](NC(=O)[C@H](CCN)NS(=O)(=O)c1ccc(-c2ccc(Cl)cc2)nc1)[C@@H](C)O)B(O)O [Compound 235] (X21-[Dab]TAK-boroAla) |  | 32 (≈ 43.2 µM) | 16 (≈ 21.6 µM) |
| CC(C)C#CC#Cc1ccc(C(=O)N[C@@H](CCN)C(=O)N[C@H](C(=O)N[C@@H](C)C(=O)N[C@@H](CCCCN)C(=O)N[C@@H](C)B2O[C@@H]3C[C@@H]4C[C@@H](C4(C)C)[C@]3(C)O2)[C@@H](C)O)cc1 [Compound 263] (X36-[Dab]TAK-{boroAla((+)-pinanediol)}) |  | 0.25 (≈ 0.306 µM) | 0.71 (≈ 0.868 µM) |
| C[C@H](NC(=O)[C@H](CCCCN)NC(=O)[C@H](C)NC(=O)[C@@H](NC(=O)C(NC(=O)c1ccc(-c2ccc(Cl)cc2)cc1)C1CNC1)[C@@H](C)O)B1O[C@@H]2C[C@@H]3C[C@@H](C3(C)C)[C@]2(C)O1 (stereo partly drawn) [Compound 281] |  | 8 (≈ 9.41 µM) | 4 (≈ 4.7 µM) |
| CCCCCCCCCCNCCC(=O)N[C@@H](CCCCN)C(=O)N[C@H](C(=O)N[C@@H](C)C(=O)N[C@@H](CCCCN)C(=O)N[C@@H](C)B(O)O)[C@@H](C)O [Compound 218] ({Propanoyl(3-decylamino)}-KTAK-boroAla) | 2.1 (≈ 2.88 µM) | >64 |  |
| C[C@H](NC(=O)[C@H](CCCCN)NC(=O)[C@H](C)NC(=O)[C@@H](NC(=O)[C@H](CCN)NC(=O)c1ccc(-c2ccc(Cl)cc2)cc1)[C@@H](C)O)B1O[C@@H]2C[C@@H]3C[C@@H](C3(C)C)[C@]2(C)O1 [Compound 112] ({Benzoyl(4-(4-Cl-Ph))}-[Dab]TAK-{boroAla((+)-pinanediol)}) | 1 (≈ 1.19 µM) | 64 (≈ 76.3 µM) |  |
| C[C@H](NC(=O)[C@H](CCCCN)NC(=O)[C@H](C)NC(=O)[C@@H](NC(=O)C(NC(=O)c1ccc(-c2ccc(Cl)cc2)cc1)C1CNC1)[C@@H](C)O)B1O[C@@H]2C[C@@H]3C[C@@H](C3(C)C)[C@]2(C)O1 (stereo partly drawn) [Compound 282] |  | 16 (≈ 18.8 µM) | 8 (≈ 9.41 µM) |
| C[C@H](NC(=O)[C@@H](NC(=O)[C@H](CN)NC(=O)c1ccc(-c2ccc(Cl)cc2)cc1)[C@@H](C)O)C(=O)N[C@@H](CCCCN)C(=O)N[C@@H](C)C(=O)c1ncccn1 [Compound 267] ({Benzoyl(4-(4-Cl-Ph))}-[Dap]TAK-X28) |  | 32 (≈ 42.5 µM) | 11 (≈ 14.6 µM) |
| CCCCCCCCCCNC[C@@H](N)C(=O)N[C@H](C(=O)N[C@@H](C)C(=O)N[C@@H](CCCCN)C(=O)N[C@@H](C)B1O[C@@H]2C[C@@H]3C[C@@H](C3(C)C)[C@]2(C)O1)[C@@H](C)O [Compound 241] |  | 32 (≈ 42.7 µM) | 1 (≈ 1.33 µM) |
| CCCCCCCCCCNCCN[C@@H](CC(N)=O)C(=O)N[C@H](C(=O)N[C@@H](C)C(=O)N[C@@H](CCCCN)C(=O)N[C@@H](C)B(O)O)[C@@H](C)O [Compound 243] | 1.4 (≈ 2.04 µM) | >64 |  |
| CCCCCCCCCCNCCS(=O)(=O)N[C@@H](CCN)C(=O)N[C@H](C(=O)N[C@@H](C)C(=O)N[C@@H](CCCCN)C(=O)N[C@@H](C)C(=O)C(=O)O)[C@@H](C)O [Compound 253] ({Ethanesulfonyl(2-NHDecyl)}-[Dab]TAK-X22) | 1 (≈ 1.31 µM) | 64 (≈ 83.7 µM) |  |
| C[C@H](NC(=O)[C@@H](NC(=O)[C@H](CCN)NC(=O)c1ccc(-c2ccc(Cl)cc2)cc1)[C@@H](C)O)C(=O)N[C@@H](CCCCN)C(=O)N[C@@H](C)C(=O)C(=O)O [Compound 247] ({Benzoyl(4-(4-Cl-Ph))}-[Dab]TAK-X22) |  | >64 | 3.2 (≈ 4.37 µM) |
| CCCCCCCCCCNCCS(=O)(=O)N[C@@H](CCCCN)C(=O)N[C@H](C(=O)N[C@@H](C)C(=O)N[C@@H](CCCCN)C(=O)N[C@@H](C)B1O[C@@H]2C[C@@H]3C[C@@H](C3(C)C)[C@]2(C)O1)[C@@H](C)O [Compound 237] ({Ethanesulfonyl(2-NHDecyl)}-KTAK-{boroAla((+)-pinanediol)}) |  | 32 (≈ 35.6 µM) | 0.35 (≈ 0.389 µM) |
| CC(NC(=O)[C@H](CCCCN)NC(=O)[C@H](C)NC(=O)[C@@H](NC(=O)[C@H](CCN)NC(=O)c1ccc(-c2ccc(Cl)cc2)cc1)[C@@H](C)O)C(=O)C(F)(F)C(=O)O (stereo partly drawn) [Compound 215] ({Benzoyl(4-(4-Cl-Ph))}-[Dab]TAK-X20) | 6.7 (≈ 8.57 µM) | 64 (≈ 81.8 µM) |  |
| CCCCCCCCCCNCCN[C@@H](CO)C(=O)N[C@H](C(=O)N[C@@H](C)C(=O)N[C@@H](CCCCN)C(=O)N[C@@H](C)B1O[C@@H]2C[C@@H]3C[C@@H](C3(C)C)[C@]2(C)O1)[C@@H](C)O [Compound 242] |  | 64 (≈ 80.6 µM) | 4 (≈ 5.04 µM) |
| CCCCCCCCCCNCCC(=O)N[C@@H](CN)C(=O)N[C@H](C(=O)N[C@@H](C)C(=O)N[C@@H](CC(N)=O)C(=O)N[C@@H](C)B(O)O)[C@@H](C)O [Compound 222] ({Propanoyl(3-decylamino)}-[Dap]TAN-boroAla) | 2 (≈ 2.97 µM) | 8 (≈ 11.9 µM) |  |
| CCCCCCCCCCNCCC(=O)N[C@@H](CCCCN)C(=O)N[C@@H](CCC(=O)O)C(=O)N[C@@H](C)C(=O)N[C@@H](CCCCN)C(=O)N[C@@H](C)B1O[C@@H]2C[C@@H]3C[C@@H](C3(C)C)[C@]2(C)O1 [Compound 223] ({Propanoyl(3-decylamino)}-KEAK-{boroAla((+)-pinanediol)}) |  | 64 (≈ 71.8 µM) | 4 (≈ 4.49 µM) |
| C[C@H](NC(=O)[C@H](CCCCN)NC(=O)[C@H](C)NC(=O)[C@@H](NC(=O)[C@H](CCCCN)NS(=O)(=O)c1ccc(-c2ccccc2)cc1)[C@@H](C)O)B1O[C@@H]2C[C@@H]3C[C@@H](C3(C)C)[C@]2(C)O1 [Compound 133] ({Benzenesulfonyl(4-Ph)}-KTAK-{boroAla((+)-pinanediol)}) |  | >64 | 8 (≈ 9.22 µM) |
| CCCCCCCCCC(=O)NCC(=O)N[C@H](C(=O)N[C@@H](C)C(=O)N[C@@H](CCCCN)C(=O)N[C@@H](C)B1O[C@@H]2C[C@@H]3C[C@@H](C3(C)C)[C@]2(C)O1)[C@@H](C)O [Compound 258] (Decanoyl-GTAK-{boroAla((+)-pinanediol)}) |  | >64 | 8 (≈ 10.9 µM) |
| CCCCc1ccc(-c2ccc(S(=O)(=O)N[C@@H](CCN)C(=O)N[C@H](C(=O)N[C@@H](C)C(=O)N[C@@H](CCCCN)C(=O)N[C@@H](C)B3O[C@@H]4C[C@@H]5C[C@@H](C5(C)C)[C@]4(C)O3)[C@@H](C)O)cn2)cc1 [Compound 232] (X18-[Dab]TAK-{boroAla((+)-pinanediol)}) |  | 11 (≈ 12.3 µM) | 1.5 (≈ 1.67 µM) |
